Source: patent EP4755888A1 (ILAb Co., Ltd., priority 2023, dated 2025)

target: PD-1/PD-L1 (Homo sapiens, UniProt Q9NZQ7); experiment: TR-FRET PD-1/PD-L1 binding inhibition at the molecular level (free proteins); details: Tag1-PD-L1 and Tag2-PD-1 proteins, twelve concentrations from 200 nM, 2 hours at room temperature, read-out: FRET assay (IC50)
Description: In order to evaluate the inhibitory activity of the compounds synthesized according to the above Preparation Examples against PD-1/PD-L1 molecules in a free protein state,a TR-FRET (Time-Resolved Fluorescence Energy Transfer) experimetn was performed as described below.
Specifically, the compounds were prepared in a 96-well plate by serial dilution starting from 200 nM with 1/2 dilutions to obtain a total of twelve concentrations, and 2 µL of each compound solution was added to a 384-well plate. Thereafter, Tag1-PD-L1 protein and Tag2-PD-1 protein were each prepared at a 1x concentration, mixed at a ratio of 1:1, and 8 µL of the mixed solution was added to each well of the 384-well plate containing the compounds. Anti-Tag1 Eu Cryptate reagent and Anti-Tag2 XL665 antibody were each prepared at a 1* concentration, mixed at a ratio of 1:1, and 10 µL of the mixed solution was added to each well of the 384-well plate containing the compounds and proteins, followed by incubation at room temperature for 2 hours. Upon completion of the reaction, fluorescence signals at wavelengths of 620 nm and 665 nm were measured using a microplate reader.

Chain of PD-1/PD-L1 (Q9NZQ7 19-238 limits assumed): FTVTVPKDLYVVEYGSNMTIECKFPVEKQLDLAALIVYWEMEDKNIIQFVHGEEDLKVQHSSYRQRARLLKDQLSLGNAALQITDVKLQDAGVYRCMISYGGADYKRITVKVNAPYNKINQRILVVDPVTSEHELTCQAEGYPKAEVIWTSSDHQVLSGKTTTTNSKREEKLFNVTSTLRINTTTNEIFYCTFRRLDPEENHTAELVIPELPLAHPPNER

O=C(Nc1cccc(-c2cccc(Nc3nc(C(F)F)nc4cc(CN5CC[C@@H](O)C5)cnc34)c2Cl)c1Cl)c1cc2n(n1)CCC[C@@H]2N1CC(C(=O)O)C1 (stereo in doubt) [Compound 262, 1-((S)-2-((2,2'-dichloro-3'-((2-(difluoromethyl)-7-(((R)-3-hydroxypyrrolidin-1-yl)methyl)pyrido[3,2-d]pyrimidin-4-yl)amino)-[1,1'-biphenyl]-3-yl)carbamoyl)-4,5,6,7-tetrahydropyrazolo[1,5-a]pyridin-4-yl)azetidine-3-carboxylic acid] and O=C(O)CN[C@H]1CCCn2nc(C(=O)Nc3cccc(-c4cccc(Nc5nc(C(F)F)nc6cc(CN7CC[C@@H](O)C7)cnc56)c4Cl)c3Cl)cc21 (stereo in doubt) [Compound 294, 2-(((S)-2-((2,2'-dichloro-3'-((2-(difluoromethyl)-7-(((R)-3-hydroxypyrrolidin-1-yl)methyl)pyrido[3,2-d]pyrimidin-4-yl)amino)-[1,1'-biphenyl]-3-yl)carbamoyl)-4,5,6,7-tetrahydropyrazolo[1,5-a]pyridin-4-yl)amino)acetic acid] fall in the same range of IC50: 10 to 100 nM for the first, 10 to 100 nM for the second.

Cc1c(NC(=O)c2cc3n(n2)CCC[C@@H]3N2CCC(O)CC2)cccc1-c1cccc(Nc2nc(C(F)(F)F)nc3cccnc23)c1C (stereo in doubt) [Compound 286, (S)-N-(2,2'-dimethyl-3'-((2-(trifluoromethyl)pyrido[3,2-d]pyrimidin-4-yl)amino)-[1,1'-biphenyl]-3-yl)-4-(4-hydroxypiperidin-1-yl)-4,5,6,7-tetrahydropyrazolo[1,5-a]pyridine-2-carboxamide] and Cc1c(NC(=O)c2cc3n(n2)CCC[C@H]3N2CCC(C(=O)O)CC2)cccc1-c1cccc(Nc2nc(C(F)(F)F)nc3cc(CN4CC[C@@H](O)C4)cnc23)c1C (stereo in doubt) [Compound 343, 1-((R)-2-((3'-((7-(((R)-3-hydroxypyrrolidin-1-yl)methyl)-2-(trifluoromethyl)pyrido[3,2-d]pyrimidin-4-yl)amino)-2,2'-dimethyl-[1,1'-biphenyl]-3-yl)carbamoyl)-4,5,6,7-tetrahydropyrazolo[1,5-a]pyridin-4-yl)piperidine-4-carboxylic acid] fall in the same range of IC50: 10 to 100 nM for the first, 10 to 100 nM for the second.

O=C(Nc1cccc(-c2cccc(Nc3nc(C(F)F)nc4cccnc34)c2Cl)c1Cl)c1cc2n(n1)CCC[C@@H]2N1CCC(C(=O)O)CC1 (stereo in doubt) [Compound 290, (S)-1-(2-((2,2'-dichloro-3'-((2-(difluoromethyl)pyrido[3,2-d]pyrimidin-4-yl)amino)-[1,1'-biphenyl]-3-yl)carbamoyl)-4,5,6,7-tetrahydropyrazolo[1,5-a]pyridin-4-yl)piperidine-4-carboxylic acid] and CC(C)c1nc(Nc2cccc(-c3cccc(NC(=O)c4cc5n(n4)CCC[C@@H]5N4CCC(C(=O)O)CC4)c3Cl)c2Cl)c2ncccc2n1 (stereo in doubt) [Compound 298, (S)-1-(2-((2,2'-dichloro-3'-((2-isopropylpyrido[3,2-d]pyrimidin-4-yl)amino)-[1,1'-biphenyl]-3-yl)carbamoyl)-4,5,6,7-tetrahydropyrazolo[1,5-a]pyridin-4-yl)piperidine-4-carboxylic acid] fall in the same range of IC50: 10 to 100 nM for the first, 10 to 100 nM for the second.

CC(C)c1nc(Nc2cccc(-c3cccc(NC(=O)c4cc5n(n4)CCC[C@@H]5NC(C)(C)C(=O)O)c3Cl)c2Cl)c2ncccc2n1 (stereo in doubt) [Compound 300, (S)-2-((2-((2,2'-dichloro-3'-((2-isopropyl-pyrido[3,2-d]pyrimidin-4-yl)amino)-[1,1'-biphenyl]-3-yl)carbamoyl)-4,5,6,7-tetrahydropyrazolo[1,5-a]pyridin-4-yl)amino)-2-methylpropanoic acid] and O=C(Nc1cccc(-c2cccc(Nc3nc(C(F)F)nc4cccnc34)c2Cl)c1Cl)c1cc2n(n1)CCC[C@@H]2N1CCC(O)CC1 (stereo in doubt) [Compound 306, (S)-N-(2,2'-dichloro-3'-((2-(difluoromethyl)pyrido[3,2-d]pyrimidin-4-yl)amino)-[1,1'-biphenyl]-3-yl)-4-(4-hydroxypiperidin-1-yl)-4,5,6,7-tetrahydropyrazolo[1,5-a]pyridine-2-carboxamide] fall in the same range of IC50: 10 to 100 nM for the first, 10 to 100 nM for the second.

Cc1c(NC(=O)c2cc3n(n2)CCCC3=O)cccc1-c1cccc(NC(=O)c2cc3n(n2)CCCC3=O)c1C [Compound 1, N,N'-(2,2'-dimethyl-[1,1'-biphenyl]-3,3'-diyl)bis(4-oxo-4,5,6,7-tetrahydropyrazolo[1,5-a]pyridine-2-carboxamide)] and Cc1c(NC(=O)c2cc3n(n2)CCCC3=O)cccc1-c1cccc(NC(=O)c2cc3n(n2)CCCC3O)c1C (centres unmarked) [Compound 2, N-(2,2'-dimethyl-3'-(4-oxo-4,5,6,7-tetrahydropyrazolo[1,5-a]pyridine-2-carboxamido)-[1,1'-biphenyl]-3-yl)-4-hydroxy-4,5,6,7-tetrahydropyrazolo[1,5-a]pyridine-2-carboxamide] cannot be ordered by IC50: < 10 nM for the first, < 10 nM for the second.

Cc1c(NC(=O)c2cc3n(n2)CCCC3O)cccc1-c1cccc(NC(=O)c2cc3n(n2)CCCC3O)c1C (centres unmarked) [Compound 2-1, N,N'-(2,2'-dimethyl-[1,1'-biphenyl]-3,3'-diyl)bis(4-hydroxy-4,5,6,7-tetrahydropyrazolo[1,5-a]pyridine-2-carboxamide)] and Cc1c(NC(=O)c2cc3n(n2)CCCC3O)cccc1-c1cccc(NC(=O)c2cc3n(n2)CCCC3NCCO)c1C (centres unmarked) [Compound 3-1, 4-hydroxy-N-(3'-(4-((2-hydroxyethyl)amino)-4,5,6,7-tetrahydropyrazolo[1,5-a]pyridine-2-carboxamido)-2,2'-dimethyl-[1,1'-biphenyl]-3-yl)-4,5,6,7-tetrahydropyrazolo[1,5-a]pyridine-2-carboxamide] cannot be ordered by IC50: < 10 nM for the first, < 10 nM for the second.

Cc1c(NC(=O)c2cc3n(n2)CCCC3=O)cccc1-c1cccc(NC(=O)c2cc3n(n2)CCCC3NCCO)c1C (centres unmarked) [Compound 3, N-(2,2'-dimethyl-3'-(4-oxo-4,5,6,7-tetrahydropyrazolo[1,5-a]pyridine-2-carboxamido)-[1,1'-biphenyl]-3-yl)-4-((2-hydroxyethyl)amino)-4,5,6,7-tetrahydropyrazolo[1,5-a]pyridine-2-carboxamide] and Cc1c(NC(=O)c2cc3n(n2)CCCC3NCCO)cccc1-c1cccc(NC(=O)c2cc3n(n2)CCCC3NCCO)c1C (centres unmarked) [Compound 6, N,N'-(2,2'-dimethyl-[1,1'-biphenyl]-3,3'-diyl)bis(4-((2-hydroxyethyl)amino)-4,5,6,7-tetrahydropyrazolo[1,5-a]pyridine-2-carboxamide)] cannot be ordered by IC50: < 10 nM for the first, < 10 nM for the second.

CC(=O)NCCNC1CCCn2nc(C(=O)Nc3cccc(-c4cccc(NC(=O)c5cc6n(n5)CCCC6NCCNC(C)=O)c4C)c3C)cc21 (centres unmarked) [Compound 5, N,N'-(2,2'-dimethyl-[1,1'-biphenyl]-3,3'-diyl)bis(4-((2-acetamidoethyl)amino)-4,5,6,7-tetrahydropyrazolo[1,5-a]pyridine-2-carboxamide)] and O=C(O)CNC1CCCn2nc(C(=O)Nc3cccc(-c4cccc(NC(=O)c5cc6n(n5)CCCC6NCC(=O)O)c4Cl)c3Cl)cc21 (centres unmarked) [Compound 8, 2-[[2-[[3-[3-[[4-(carboxymethylamino)-4,5,6,7-tetrahydropyrazolo[1,5-a]pyridine-2-carbonyl]amino]-2-chlorophenyl]-2-chlorophenyl]carbamoyl]-4,5,6,7-tetrahydropyrazolo[1,5-a]pyridin-4-yl]amino]acetic acid] cannot be ordered by IC50: < 10 nM for the first, < 10 nM for the second.

Cc1c(NC(=O)c2cc3n(n2)CCCC3O)cccc1-c1cccc(Nc2nccc3cc(CN4CC[C@@H](O)C4)cnc23)c1C (stereo partly drawn) [Compound 11, 4-hydroxy-N-(3'-((3-(((R)-3-hydroxypyrrolidin-1-yl)methyl)-1,7-naphthyridin-8-yl)amino)-2,2'-dimethyl-[1,1'-biphenyl]-3-yl)-4,5,6,7-tetrahydropyrazolo[1,5-a]pyridine-2-carboxamide] and Cc1c(NC(=O)c2cc3n(n2)CCCC3NCCO)cccc1-c1cccc(Nc2nccc3cc(CN4CC[C@@H](O)C4)cnc23)c1C (stereo partly drawn) [Compound 14, 4-((2-hydroxyethyl)amino)-N-(3'-((3-(((R)-3-hydroxypyrrolidin-1-yl)methyl)-1,7-naphthyridin-8-yl)amino)-2,2'-dimethyl-[1,1'-biphenyl]-3-yl)-4,5,6,7-tetrahydropyrazolo[1,5-a]pyridine-2-carboxamide] cannot be ordered by IC50: < 10 nM for the first, < 10 nM for the second.

CC(=O)NCCNC1CCCn2nc(C(=O)Nc3cccc(-c4cccc(Nc5nccc6cc(CN7CC[C@@H](O)C7)cnc56)c4C)c3C)cc21 (stereo partly drawn) [Compound 12, 4-((2-acetamidoethyl)amino)-N-(3'-((3-(((R)-3-hydroxypyrrolidin-1-yl)methyl)-1,7-naphthyridin-8-yl)amino)-2,2'-dimethyl-[1,1'-biphenyl]-3-yl)-4,5,6,7-tetrahydropyrazolo[1,5-a]pyridine-2-carboxamide] and Cc1c(NC(=O)c2cc3n(n2)CCCC3N2CC[C@@H](O)C2)cccc1-c1cccc(Nc2nccc3cc(CN4CC[C@@H](O)C4)cnc23)c1C (stereo partly drawn) [Compound 13, 4-((R)-3-hydroxypyrrolidin-1-yl)-N-(3'-((3-(((R)-3-hydroxypyrrolidin-1-yl)methyl)-1,7-naphthyridin-8-yl)amino)-2,2'-dimethyl-[1,1'-biphenyl]-3-yl)-4,5,6,7-tetrahydropyrazolo[1,5-a]pyridine-2-carboxamide] cannot be ordered by IC50: < 10 nM for the first, < 10 nM for the second.
